From PMC9127112, “Opening opportunities for Kd determination and screening of MHC peptide complexes” (Communications Biology, 2022)
Where “and” joins values, the source holds several entries; their conditions need not be identical. Identical values can stand only once. Ends that are not written are not given here. Peptide text beside a SMILES is read from it.

Key:
[1] = target: T1, dsA2: HLA-A*02:01(Y84C/A139C) disulfide mutant heavy chain / β2m complex (Homo sapiens, UniProt P04439, A163C/D140Y/D185E/D98H/E176V/E277Q/G131W/G231S/I119V/I121R/I166T/I218V/L300P/L318F/N151K/N90K/P208A/P217A/Q86G/Q94H/R138H/R169H/T345S/Y108C); assay: native mass spectrometry (nMS) of peptide binding to empty dsA2;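 note: native nano-electrospray MS on Q-Tof II in positive mode, dsA2 at 10 µM with peptide 50–200 µM, incubated ≥10 min on ice, argon collision gas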
T1 construct: made in house; host or cells: Escherichia coli (pET3a)

[2] = target: T2, dsA2: HLA-A*02:01(Y84C/A139C) disulfide mutant heavy chain / β2m complex (Homo sapiens, UniProt P04439, D140Y/D185E/D98H/E176V/E277Q/G131W/G231S/I119V/I121R/I166T/I218V/L300P/L318F/N151K/N90K/P208A/P217A/Q86G/Q94H/R138H/R169H/T345S/A163C/Y108C); assay: as above; settings: for AUC dsA2 (empty) / AUC dsA2/erucamide / AUC dsA2/pep / AUC dsA2/pep/pep: cone 150 V, ratio 1:5, raw data, mean of >=3 measurements
T2 construct: made in house; host or cells: Escherichia coli (pET3a)

[3] = target: T1, dsA2: HLA-A*02:01(Y84C/A139C) disulfide mutant heavy chain / β2m complex; assay: biochemical; assay type: binding
[4] = target: empty disulfide-stabilized HLA-A*02:01(Y84C/A139C) in complex with beta-2 microglobulin (human); assay: native MS
[5] = target: empty disulfide-stabilized HLA-A*02:01(Y84C/A139C) in complex with beta-2 microglobulin (human); assay: isothermal analysis of nanoscale differential scanning fluorimetry (iDSF)
[6] = target: empty disulfide-stabilized HLA-A*02:01(Y84C/A139C) complex of heavy chain and beta-2 microglobulin (human); assay: native MS
[7] = target: empty disulfide-stabilized HLA-A*02:01(Y84C/A139C) complex of heavy chain and beta-2 microglobulin (human); assay: nanoscale differential scanning fluorimetry (nDSF, thermal stabilisation)

Row | Compound | AUC dsA2 (empty) ([2]; acceleration voltage 10 V) [%] | AUC dsA2/erucamide ([2]; acceleration voltage 10 V) [%] | AUC dsA2/pep ([2]; acceleration voltage 10 V) | AUC dsA2/pep/pep ([2]; acceleration voltage 10 V) | AUC dsA2 (empty) ([2]; acceleration voltage 25 V) [%] | AUC dsA2/erucamide ([2]; acceleration voltage 25 V) [%] | AUC dsA2/pep ([2]; acceleration voltage 25 V) [%] | AUC dsA2/pep/pep ([2]; acceleration voltage 25 V) [%] | AUC dsA2 (empty) ([2]; acceleration voltage 50 V) [%] | AUC dsA2/erucamide ([2]; acceleration voltage 50 V) [%] | AUC dsA2/pep ([2]; acceleration voltage 50 V) [%] | AUC dsA2/pep/pep ([2]; acceleration voltage 50 V) [%] | Kd [3] [µM] | Kd [5] [µM] | other results
1 | CC(C)C[C@H](NC(=O)[C@@H](N)CC(N)=O)C(=O)N[C@H](C(=O)N1CCC[C@H]1C(=O)O)C(C)C [NP4] (H-NLVP-OH) | 55 | 33.8 | 11% | 0.6% | 57.8 | 31.1 | 10.4 | 0.69 | 92.4 | 4.3 | 2.6 | 0.8 | 50 |  | Kd [1]: 350 µM and 100 µM
2 | CC(C)[C@H](N)C(=O)N[C@@H](C)C(=O)N[C@H](C(=O)N[C@H](C(=O)O)C(C)C)[C@@H](C)O [VV4] (H-VATV-OH) | 68 | 18.093 | 14% | 0% | 68 | 17.6 | 14 | 0 | 92 | 4.0 | 4.1 | 0 | 50 |  | 
3 | CCCCCCCC/C=C\CCCCCCCCCCCC(N)=O [erucamide, (Z)-docos-13-enamide] |  |  |  |  |  |  |  |  |  |  |  |  |  |  | occupancy of dsA2 with erucamide ([2]; no peptide, linear extrapolation to cone voltage <=48 V (experimentally unfeasible)): 100%
4 | Ac-NV9-NH2, NV9 with acetylated N-terminus and amidated C-terminus (peptide) |  |  |  |  |  |  |  |  |  |  |  |  |  | 4 | Kd [4]: 80 µM
5 | Ac-NV9-NH2, NV9 with an acetylated N-terminus and an amidated C-terminus (peptide) |  |  |  |  |  |  |  |  |  |  |  |  |  |  | Kd [6]: 7 µM; ∆Tm [7]: 2.7 K
6 | GLGGGGGGV [GV9] | 52 | 4.3 | 43 ± 2% and 43% | 1.5 ± 0.4% and 1.5% | 50 | 5 | 43 | 2.2 | 62 | 1.7 | 35 | 1.1 |  |  | Kd ([1]; read-out: Kd,high): 35 µM; Kd ([1]; read-out: Kd,low): 0.5 µM; Kd ([3]; dsA2 2.2 µM, 20 mM Tris pH 8, 150 mM NaCl, twofold serial dilution, 11 concentrations, two independent measurements, values marked * (below 200 nM) not reliable, read-out: Kd,iDSF): 0.36 µM
7 | LV8 (LVPMVATV), truncated NV9 variant (peptide) |  |  |  |  |  |  |  |  |  |  |  |  |  | 0.008 | Kd [4]: 17 µM
8 | LV8, NV9 without the N-terminal asparagine (peptide) |  |  |  |  |  |  |  |  |  |  |  |  |  |  | Kd [6]: 0.07 µM; ∆Tm [7]: 11.6 K
9 | LVPMVATV [LV8] | 42 | 1.7 | 54% | 2.8% | 40 | 1.5 | 54 | 3.9 | 53 | 0.4 | 45 | 1.6 | 0.008 |  | 
10 | MV5 (MVATV), truncated NV9 variant (peptide) |  |  |  |  |  |  |  |  |  |  |  |  |  | 1.6 | 
11 | MVATV [MV5] | 64 | 10.4 | 23% | 3.2% | 63 | 10.4 | 23 | 3.7 | 80 | 3.3 | 15 | 1.5 | 1.6 |  | Kd ([1]; Kd,high): 110 µM; Kd ([1]; Kd,low): 3 µM
12 | NA7 (NLVPMVA), truncated NV9 variant (peptide) |  |  |  |  |  |  |  |  |  |  |  |  |  | 3.6 | 
13 | NLVPM [NM5] | 62 | 19 | 17.9% | 1.0% | 64 | 17 | 18.0 | 1.2 | 90.3 | 1.3 | 8.1 | 0.3 | 11 |  | Kd ([1]; Kd,high): 180 µM; Kd ([1]; Kd,low): 15 µM
